Tested on: HCV GT1b replicon
Experiment: HCV GT1b replicon luciferase reporter assay (2209-23 cells)
Format: cell-based
Conditions: Hepatitis C virus, genotype 1a / genotype 1b; 2209-23 cells (Huh-7 with GT-1b Con1 subgenomic replicon), Renilla luciferase read 72 hours after compound addition; read-out: GT-1a - EC50 (nM) HCV, GT1b, IC50 (µM)
Excerpt: Determination of compounds HCV GT1b inhibitory replicon activity using the replicon luciferase reporter assay
The 2209-23 cell line was developed at Roche by stable transfection of the hepatoma cell line Huh-7 with a GT-1b Con1 subgenomic bicistronic replicon as previously described. Subgenomic replicon cell line was established in cured Huh7 cells, obtained from R. Bartenschlager (J Virol. 2003 March; 77 (5):3007-19) The GT-1a H77 subgenomic replicon vector pRLuc H77 1b 75 S/I, was created by replacing the nonstructural region of the GT-1b Con1 subgenomic replicon by the one of the H77 strain, except for the first 75 amino acids of the NS3 protein that are from GT-1b Conl strain. (J. Virol. 2001 77:5352-59) The GT-1a pRLuc H77 1b 75 S/I subgenomic replicon cell line was established in cured Huh7 cells, obtained from R. Bartenschlager. (J Virol. 2003 March; 77 (5):3007-19)
All the subgenomic replicon cell lines were cultured in Dulbecco's Modified Eagle Medium (DMEM-Glutamax™-I; Invitrogen Cat #10569-010). The medium was supplemented with 10% Fetal Bovine Serum (Invitrogen Cat #10082-147), 1% penicillin/streptomycin (Mediatech Cat #30-002-CI) and 500 μg/ml of G418 (Mediatech Cat #30-234-CI). Cells were maintained at 37° C. in a humidified 5% CO2 atmosphere.
2209-23 cells were plated at a cell density of 5000 cells per well in 96 well plates (Becton Dickinson, Cat #35 3296). Cells were plated in 90 μl of Dulbecco's Modified Eagle Medium (DMEM-Glutamax™-I), (Invitrogen Cat #10569-010) medium was supplemented with 5% Fetal Bovine Serum (Invitrogen Cat #10082-147), 1% penicillin/streptomycin (Mediatech Cat #30-002-CI). The pRluc H77 1b 75 SA cells were plated in 96-well plate at 3000 cells/well in DMEM-Glutamax™-I containing 5% FBS and 1% penicillin/streptomycin in 90 μl final volume. Cells were allowed to equilibrate for 24 hours at 37° C. and 5% CO2 at which time compounds were added. Compounds (or medium as a control) were added 24 hours post-plating in 3 fold dilutions at a final DMSO concentration of 1% in 10 μl volume. Renilla luciferase reporter signal was read 72 hours after addition of compounds using the Renilla Luciferase Assay System (Promega, cat #E2820). EC50 values were defined as the compound concentration at which a 50% reduction in the levels of renilla luciferase reporter was observed as compared to control samples in the absence of compound and was determined by non-linear fitting of compound dose-response data. The EC50 was approximated if maximum percentage inhibition was less than 90% and more than 70%.

**Q.** Which IC50 does the source give for `COC(=O)[C@@H]1C[C@@H](NC(=O)c2ccc3ccccc3c2O)CN1CC1CCCCC1` [Compound I-28, (2S,4R)-1-Cyclohexylmethyl-4-[(1-hydroxy-naphthalene-2-carbonyl)-amino]-pyrrolidine-2-carboxylic acid methyl ester] here?
**A.** Its IC50 is 793 nM.

**Q.** For `O=C(N[C@H]1C[C@@H](C(=O)N2CCC2)N(CC2CCCCC2)C1)c1ccc2ccccc2c1O` [Compound I-29, 1-Hydroxy-naphthalene-2-carboxylic acid [(3S,5S)-5-(azetidine-1-carbonyl)-1-cyclohexylmethyl-pyrrolidin-3-yl]-amide], which IC50 is on record?
**A.** Its IC50 is 826 nM.

Source: patent US9403805B2, “Antiviral compounds” (Hoffmann-La Roche Inc., priority 2012, dated 2016)
